Data taken from patent US11524966B1 (Valo Early Discovery, Inc., priority 2017, dated 2022).

target: T1, USP25 (USP25-His6, Boston Biochem E-546) (Homo sapiens, UniProt Q9UHP3); test: Ubiquitin-Rhodamine 110 Assay for USP25 Activity, Example A-2; format: biochemical; settings: Ub-Rh110 assay, Example A-2; read-out: USP25 A-2 IC50 range
T1 construct: His6; purchased Boston Biochem E-546
T1 sequence (Q9UHP3 1-1055): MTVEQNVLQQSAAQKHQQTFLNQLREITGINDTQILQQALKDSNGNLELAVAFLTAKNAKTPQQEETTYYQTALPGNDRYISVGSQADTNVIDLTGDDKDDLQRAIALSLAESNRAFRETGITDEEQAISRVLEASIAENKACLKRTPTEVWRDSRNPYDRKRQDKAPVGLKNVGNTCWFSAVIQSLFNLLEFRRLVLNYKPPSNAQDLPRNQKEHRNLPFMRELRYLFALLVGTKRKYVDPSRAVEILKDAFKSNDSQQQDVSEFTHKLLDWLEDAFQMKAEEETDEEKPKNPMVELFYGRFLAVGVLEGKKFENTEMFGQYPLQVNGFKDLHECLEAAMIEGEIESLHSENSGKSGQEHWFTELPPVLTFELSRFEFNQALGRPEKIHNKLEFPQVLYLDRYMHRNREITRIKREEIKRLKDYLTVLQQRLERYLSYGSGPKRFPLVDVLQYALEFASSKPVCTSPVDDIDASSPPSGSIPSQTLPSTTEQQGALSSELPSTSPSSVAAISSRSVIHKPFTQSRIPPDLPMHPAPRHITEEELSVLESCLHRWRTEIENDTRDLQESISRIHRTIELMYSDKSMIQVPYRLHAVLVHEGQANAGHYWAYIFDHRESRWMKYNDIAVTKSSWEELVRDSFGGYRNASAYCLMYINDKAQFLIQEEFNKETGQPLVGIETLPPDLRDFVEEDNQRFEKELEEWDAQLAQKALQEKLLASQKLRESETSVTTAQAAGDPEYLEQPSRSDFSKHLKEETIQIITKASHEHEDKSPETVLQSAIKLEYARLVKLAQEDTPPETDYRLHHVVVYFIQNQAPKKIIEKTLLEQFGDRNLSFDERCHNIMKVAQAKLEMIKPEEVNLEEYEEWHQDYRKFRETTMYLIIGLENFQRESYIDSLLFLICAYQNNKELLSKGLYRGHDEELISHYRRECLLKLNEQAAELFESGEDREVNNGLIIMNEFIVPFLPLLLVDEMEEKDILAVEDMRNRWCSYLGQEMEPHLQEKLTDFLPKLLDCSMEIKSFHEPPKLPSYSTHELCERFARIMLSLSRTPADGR
Experimental: The assay was performed in a final volume of 9 μL in assay buffer containing 20 mM Tris-HCl (pH 8.0, (1M Tris-HCl, pH 8.0 solution; Corning 46-031-CM)), 3 mM BME (2-Mercaptoethanol; Sigma 63689-25ML-F), 0.03% BGG (0.22 μM filtered, Sigma, G7516-25G), and 0.01% Triton X-100 (Sigma, T9284-10L). Nanoliter quantities of 10-point, 3-fold serial dilution in DMSO was pre-dispensed into 1536 assay plates (Corning, #3724BC) for a final test concentration of 25 μM to 1.3 nM, top to lowest dose, respectively. Enzyme USP25, construct USP25-His6, (Boston Biochem E-546). Concentration and incubation times were optimized for the maximal signal-to-background while maintaining initial velocity conditions at a fixed substrate concentration. The final concentration of the enzyme in the assay was 75 pM. Final substrate (Ub-Rh110; Ubiquitin-Rhodamine 110, R&D Systems #U-555) concentration was 25 nM with [Ub-Rh110]<<Km. 3 μL of 2× enzyme was added to assay plates (pre-stamped with compound) preincubated with […] for 30 minutes and then 3 μL of 2×Ub-Rh110 was added to assay plates. Plates were incubated for 45 minutes at room temperature before addition of 3 μL of stop solution (final concentration of 10 mM citric acid (Sigma, 251275-500G)). Fluorescence was read on the Envision (Excitation at 485 nm and Emission at 535 nm; Perkin Elmer) or on the PheraSTAR (Excitation at 485 nm and Emission at 535 nm; BMG Labtech).
IC50 values were determined by curve fitting of the standard 4 parameter logistic fitting algorithm included in the Activity Base software package: IDBS XE Designer Model 205. Data is fitted using the Levenburg Marquardt algorithm.

Compound | IC50 [µM]
Cc1ccc2c(N)c(C(=O)N[C@H]3COc4cc(N5CCNCC5)ccc4C3)sc2n1 (single isomer, unassigned) [Example 1-1] | 0.2 to 2
Cc1ccc2c(N)c(C(=O)N[C@@H]3COc4cc(N5CCNCC5)ccc4C3)sc2n1 (single isomer, unassigned) [Example 1-2] | > 2
Cc1ccc2c(N)c(C(=O)N[C@H]3COc4cc(N5CC6CCC(C5)N6)ccc4C3)sc2n1 (single isomer, unassigned) [Example 1-3] | 0.001 to 0.05
Cc1ccc2c(N)c(C(=O)N[C@@H]3COc4cc(N5CC6CCC(C5)N6)ccc4C3)sc2n1 (single isomer, unassigned) [Example 1-4] | > 2
Cc1ccc2c(N)c(C(=O)N[C@H]3COc4cc(N5CC6CCCC(C5)N6)ccc4C3)sc2n1 (single isomer, unassigned) [Example 1-5] | 0.001 to 0.05
Cc1ccc2c(N)c(C(=O)N[C@@H]3COc4cc(N5CC6CCCC(C5)N6)ccc4C3)sc2n1 (single isomer, unassigned) [Example 1-6] | > 2
Cc1ccc2c(N)c(C(=O)N[C@H]3COc4cc(N5CCN[C@H](C)[C@@H]5C)ccc4C3)sc2n1 (single isomer, unassigned) [Example 1-9] | 0.2 to 2
Cc1ccc2c(N)c(C(=O)N[C@@H]3COc4cc(N5CCN[C@H](C)[C@@H]5C)ccc4C3)sc2n1 (single isomer, unassigned) [Example 1-10] | 0.2 to 2
Cc1ccc2c(N)c(C(=O)N[C@H]3COc4cc(N5CCN[C@H](C)[C@H]5C)ccc4C3)sc2n1 (single isomer, unassigned) [Example 1-11] | 0.05 to 0.2
Cc1ccc2c(N)c(C(=O)N[C@@H]3COc4cc(N5CCN[C@H](C)[C@H]5C)ccc4C3)sc2n1 (single isomer, unassigned) [Example 1-12] | 0.001 to 0.05
Cc1ccc2c(N)c(C(=O)N[C@H]3COc4cc(N5CCN[C@@H](C)[C@@H]5C)ccc4C3)sc2n1 (single isomer, unassigned) [Example 1-13] | 0.2 to 2
Cc1ccc2c(N)c(C(=O)N[C@@H]3COc4cc(N5CCN[C@@H](C)[C@@H]5C)ccc4C3)sc2n1 (single isomer, unassigned) [Example 1-14] | 0.2 to 2
Cc1nc2sc(C(=O)N[C@H]3COc4cc(N5CCNCC5)ccc4C3)c(N)c2cc1F (single isomer, unassigned) [Example 1-15] | 0.05 to 0.2
Cc1nc2sc(C(=O)N[C@@H]3COc4cc(N5CCNCC5)ccc4C3)c(N)c2cc1F (single isomer, unassigned) [Example 1-16] | > 2
Nc1c(C(=O)N[C@H]2COc3cc(N4CC5CCC(C4)N5)ccc3C2)sc2ncc(F)cc12 (single isomer, unassigned) [Example 1-17] | 0.2 to 2
Nc1c(C(=O)N[C@@H]2COc3cc(N4CC5CCC(C4)N5)ccc3C2)sc2ncc(F)cc12 (single isomer, unassigned) [Example 1-18] | > 2
Cc1cnc2c(N)c(C(=O)N[C@H]3COc4cc(N5CCNCC5)ccc4C3)sc2n1 (single isomer, unassigned) [Example 1-21] | 0.2 to 2
Cc1cnc2c(N)c(C(=O)N[C@@H]3COc4cc(N5CCNCC5)ccc4C3)sc2n1 (single isomer, unassigned) [Example 1-22] | > 2
CCn1ccc2cc(C(=O)N[C@@H]3COc4cc(N5CC6CCC(C5)N6)ccc4C3)cnc21 (single isomer, unassigned) [Example 1-27] | > 2
CCn1ccc2cc(C(=O)N[C@H]3COc4cc(N5CC6CCC(C5)N6)ccc4C3)cnc21 (single isomer, unassigned) [Example 1-28] | 0.05 to 0.2

Compound | IC50 [µM]
Cc1ccc2c(N)c(C(=O)N[C@@H]3COc4cc(N5CC6CCC(C5)N6)cc(F)c4C3)sc2n1 (single isomer, unassigned) [Example 1-30] | > 2
Cc1ccc2c(N)c(C(=O)N[C@H]3COc4cc(N5CCNCC5)c(OC(F)(F)F)cc4C3)sc2n1 (single isomer, unassigned) [Example 1-31] | > 2
Cc1ccc2c(N)c(C(=O)N[C@@H]3COc4cc(N5CCNCC5)c(OC(F)(F)F)cc4C3)sc2n1 (single isomer, unassigned) [Example 1-32] | 0.2 to 2
Cc1nc2sc(C(=O)N[C@H]3COc4cc(N5CCNCC5)cc(F)c4C3)c(N)c2s1 (single isomer, unassigned) [Example 1-37] | > 2
Cc1nc2sc(C(=O)N[C@@H]3COc4cc(N5CCNCC5)cc(F)c4C3)c(N)c2s1 (single isomer, unassigned) [Example 1-38] | 0.2 to 2
Cc1nc2sc(C(=O)N[C@H]3COc4cc(N5CC6CCC(C5)N6)cc(F)c4C3)c(N)c2s1 (single isomer, unassigned) [Example 1-39] | 0.2 to 2
Cc1nc2sc(C(=O)N[C@@H]3COc4cc(N5CC6CCC(C5)N6)cc(F)c4C3)c(N)c2s1 (single isomer, unassigned) [Example 1-40] | > 2
Cc1ccc2c(N)c(C(=O)N[C@@H]3COc4cc(N5CC6CC(C5)N6)cc(F)c4C3)sc2n1 (single isomer, unassigned) [Example 1-41] | 0.05 to 0.2
Cc1ccc2c(N)c(C(=O)N[C@H]3COc4cc(N5CC6CC(C5)N6)cc(F)c4C3)sc2n1 (single isomer, unassigned) [Example 1-42] | > 2
Cc1cnc2c(N)c(C(=O)N[C@H]3CCc4cc(N5CCNCC5)c(C)cc4C3)sc2n1 (single isomer, unassigned) [Example 2-34] | > 2
Cc1cnc2c(N)c(C(=O)N[C@@H]3CCc4cc(N5CCNCC5)c(C)cc4C3)sc2n1 (single isomer, unassigned) [Example 2-35] | > 2
Cc1cnc2c(N)c(C(=O)N[C@H]3CCc4c(ccc(N5CCNCC5)c4C)C3)sc2n1 (single isomer, unassigned) [Example 2-36] | > 2
Cc1cnc2c(N)c(C(=O)N[C@@H]3CCc4c(ccc(N5CCNCC5)c4C)C3)sc2n1 (single isomer, unassigned) [Example 2-37] | 0.2 to 2
CO[C@H]1CN(c2ccc3c(c2)OC[C@H](NC(=O)c2sc4nc(C)ccc4c2N)C3)C[C@@H]1N (single isomer, unassigned) [Example 3-1] | 0.2 to 2
CO[C@@H]1CN(c2ccc3c(c2)OC[C@H](NC(=O)c2sc4nc(C)ccc4c2N)C3)C[C@H]1N (single isomer, unassigned) [Example 3-2] | 0.2 to 2
Cc1ccc2c(N)c(C(=O)N[C@H]3COc4cc(N5CCC[C@@](N)(C(F)(F)F)C5)ccc4C3)sc2n1 (single isomer, unassigned) [Example 3-3] | 0.05 to 0.2
Cc1ccc2c(N)c(C(=O)N[C@H]3COc4cc(N5CCC[C@](N)(C(F)(F)F)C5)ccc4C3)sc2n1 (single isomer, unassigned) [Example 3-4] | 0.2 to 2
Cc1nc2sc(C(=O)N[C@H]3COc4cc(N5CC6CCC(C5)N6)ccc4C3)c(N)c2s1 [Example 1-23, N-((3R)-7-(3,8-diazabicyclo[3.2.1]octan-3-yl)chroman-3-yl)-6-amino-2-methylthieno[2,3-d]thiazole-5-carboxamide] | 0.2 to 2
Cc1nc2sc(C(=O)N[C@@H]3COc4cc(N5CC6CCC(C5)N6)ccc4C3)c(N)c2s1 [Example 1-24, N-((3S)-7-(3,8-diazabicyclo[3.2.1]octan-3-yl)chroman-3-yl)-6-amino-2-methylthieno[2,3-d]thiazole-5-carboxamide] | > 2
